Source: paper PMC10227015, “From a drug repositioning to a structure-based drug design approach to tackle acute lymphoblastic leukemia” (Nature Communications, 2023)
Read-outs that look alike come from different tables or passages of the source.

Key:
CCRF-CEM cell line = assay: dCK cellular assay: CCRF-CEM proliferation in the presence of dT and dC; format: cell-based, human; conditions: for activity at 0.00975 µM: 9.75 nM; for activity at 0.0195 µM: 19.5 nM; for activity at 0.039 µM: 39 nM; for activity at 0.078 µM: 78 nM; for activity at 0.156 µM: 156 nM; for activity at 0.312 µM: 312 nM; for activity at 0.625 µM: 625 nM; for activity at 1.25 µM: 1250 nM; for activity at 2.5 µM: 2500 nM
Method in brief: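 Two conditions in T-ALL CCRF-CEM cells: compound only, and compound with thymidine blocking de novo synthesis and deoxycytidine rescuing via dCK. Metabolic dye fluorescence (560/590 nm) gives % proliferation vs DMSO; IC50s, mean ± SD of at least three triplicate runs.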

dCK-C3S-S74E [1] = assay: Thermal shift assay (TSA); conditions: for ΔTm, dCK thermal stabilization (TSA): 5 μM protein, 50 μM compound; for Thermal Shift Assay Mean (ΔTm (º)): Figure 2b; for THERMAL SHIFT ASSAY +Tm (°): mean ± SD; for ΔTm (º) (TSA): Figure 2a, mean
Chain of dCK-C3S-S74E (P27707 whole entry S74E, form open): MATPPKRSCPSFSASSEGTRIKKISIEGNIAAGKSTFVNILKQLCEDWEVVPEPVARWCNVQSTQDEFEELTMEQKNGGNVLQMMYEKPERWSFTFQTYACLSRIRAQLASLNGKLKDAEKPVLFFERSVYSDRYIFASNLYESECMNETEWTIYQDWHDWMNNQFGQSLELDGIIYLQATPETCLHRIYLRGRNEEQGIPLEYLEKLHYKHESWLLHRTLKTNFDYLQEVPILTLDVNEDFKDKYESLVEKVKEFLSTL
Description: BL21 pRIL Escherichia coli cells were transformed with dCK-plasmids (dCK-C4S-S74E (for crystallization assays) and dCK-C3S-S74E (for TSA, enzymatic and ITC assays)). […] Protein dCK-C3S-S74E used for other assays contained only three mutated cysteines. The S74E mutation mimics the phosphorylated state of this serine, which favors the open conformation of the enzyme, making it competent for nucleoside binding[45] to evaluate the binding affinity with compounds.
For binding assays (TSA, ITC and crystallography) cells were re-suspended in 50 mM TRIS, pH 8, 500 mM NaCl, 30 mM imidazole and 10% glycerol buffer and one EDTA free anti-protease tablet was added (Roche). After sonication and centrifugation (30,000 × g), the supernatant was loaded on a 5 ml HisTrap FF column (GE healthcare) pre-equilibrated with resuspension buffer. Protein was then eluted by resuspension buffer containing 500 mM imidazole. Protein eluted fractions were mixed and concentrated. Protein was further purified by size exclusion chromatography (superdex 200 16/600, GE healthcare) in 20 mM HEPES, pH 7.5, and 200 mM NaCl before concentration to 30 mg/ml and storage at −80 °C.
Thermal shift assay (TSA) experiments were performed in 384-well PCR white plates in the assay buffer containing 20 mM HEPES, pH 7.5 and 200 mM NaCl. […] Plates were centrifuged at 200 × g for 2 min at 4 °C. […] Raw fluorescence data were treated, and the melting temperatures (Tm) were calculated using CFX Manager 3.1 software (Bio-Rad). ΔTm represents the difference in Tm between the protein in the presence of compound and the protein alone (both at 2% DMSO). Each experiment was performed at least twice (with technical triplicates) and data are presented as the mean ± SD.

dCK-C3S-S74E [2] = assay: Enzymatic assay (PK/LDH coupled), dC phosphorylation by dCK in the presence of UTP; format: biochemical, human; conditions: for effect on dCK enzymatic activity, activation versus inhibition: UTP 1 mM, dC 200 µM; for ENZYMATIC ASSAY (Activation/Inhibition): presence of UTP
Method in brief: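 Activation versus inhibition was judged with 1 mM UTP, 200 µM dC and 2 μM dCK-C3S-S74E, using pyruvate kinase/lactate dehydrogenase coupling that tracks NADH fluorescence decrease at 460 nm. Buffer was HEPES pH 7.5 with MgCl2, KCl and DTT. Rates came from linear slopes, expressed relative to compound-free control.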

[3] = Homo sapiens, CCRF-CEM, dT 200 µM + dC 1 µM, read-out: Cell proliferation of the CCRF-CEM cell line Mean (% prolif)
[4] = Homo sapiens, CCRF-CEM, dT 200 µM + dC 1 µM, 72 h, read-out: IC50 cell proliferation (dCK cellular assay)

Row | Structure (SMILES) | activity at 0.00975 µM (CCRF-CEM cell line; [3]) [%] | activity at 0.0195 µM (CCRF-CEM cell line; [3]) [%] | activity at 0.039 µM (CCRF-CEM cell line; [3]) [%] | activity at 0.078 µM (CCRF-CEM cell line; [3]) [%] | activity at 0.156 µM (CCRF-CEM cell line; [3]) [%] | activity at 0.312 µM (CCRF-CEM cell line; [3]) [%] | activity at 0.625 µM (CCRF-CEM cell line; [3]) [%] | activity at 1.25 µM (CCRF-CEM cell line; [3]) [%] | activity at 2.5 µM (CCRF-CEM cell line; [3]) [%] | IC50 (CCRF-CEM cell line; [4]) [nM] | ΔTm, dCK thermal stabilization (TSA) (dCK-C3S-S74E [1]) [°C] | Thermal Shift Assay Mean (ΔTm (º)) (dCK-C3S-S74E [1]) | THERMAL SHIFT ASSAY +Tm (°) (dCK-C3S-S74E [1]) | effect on dCK enzymatic activity, activation versus inhibition (dCK-C3S-S74E [2]) | ENZYMATIC ASSAY (Activation/Inhibition) (dCK-C3S-S74E [2]) | ΔTm (º) (TSA) (dCK-C3S-S74E [1]) | also measured
1 | CCCN(c1nc(-c2nc(N)cc(N)n2)cs1)c1cc(-c2ccc(CCN3CCN(C)CC3)cc2)ccc1C [OR0600] | 104 | 98.6 | 91.6 | 85.9 | 76.2 | 59.2 | 40.4 | 22.2 | 5.5 | 341 | 20 | 20.0 º | 20.0 ± 0.6 | only exhibited enzymatic inhibition | I |  | activity at 5 µM (CCRF-CEM cell line; Homo sapiens, CCRF-CEM, 5000 nM, dT 200 µM + dC 1 µM, read-out: Cell proliferation of the CCRF-CEM cell line Mean (% prolif)): 0.133%
2 | CCCN(c1nc(-c2nc(N)cc(N)n2)cs1)c1cc(-c2ccc(CCN3CCN(C)CC3)nc2)ccc1C [OR0602] | 88 | 81.5 | 67.1 | 58.6 | 47.4 | 36.8 | 27.7 | 20.9 | 12.7 | 130 | 19.5 | 19.7 º | 19.5 ± 0.5 |  | I |  | activity at 0.004875 µM (CCRF-CEM cell line; Homo sapiens, CCRF-CEM, 4.875 nM, dT 200 µM + dC 1 µM, read-out: Cell proliferation of the CCRF-CEM cell line Mean (% prolif)): 91.9%; fold improvement of cellular IC50 (CCRF-CEM cell line; versus the preceding compound of the optimization): ~ 2.4 fold
3 | CCCN(c1nc(-c2nc(N)cc(N)n2)cs1)c1cc(-c2ccc(S(=O)(=O)N3CCN(C)CC3)c(OC)c2)ccc1C [OR0635] |  |  |  |  |  |  |  |  |  | 15 | 20.4 | 20.7 º | 20.40 ± 0.9 |  | I | 20.4 º | activity at 0.00017 µM (CCRF-CEM cell line; Homo sapiens, CCRF-CEM, 0.17 nM, dT 200 µM + dC 1 µM, read-out: Cell proliferation of the CCRF-CEM cell line Mean (% prolif)): 97%; activity at 0.0005 µM (CCRF-CEM cell line; Homo sapiens, CCRF-CEM, 0.5 nM, dT 200 µM + dC 1 µM, read-out: Cell proliferation of the CCRF-CEM cell line Mean (% prolif)): 85.1%; activity at 0.0015 µM (CCRF-CEM cell line; Homo sapiens, CCRF-CEM, 1.5 nM, dT 200 µM + dC 1 µM, read-out: Cell proliferation of the CCRF-CEM cell line Mean (% prolif)): 74.1%; activity at 0.0046 µM (CCRF-CEM cell line; Homo sapiens, CCRF-CEM, 4.6 nM, dT 200 µM + dC 1 µM, read-out: Cell proliferation of the CCRF-CEM cell line Mean (% prolif)): 62.3%; activity at 0.014 µM (CCRF-CEM cell line; Homo sapiens, CCRF-CEM, 14 nM, dT 200 µM + dC 1 µM, read-out: Cell proliferation of the CCRF-CEM cell line Mean (% prolif)): 48.1%; activity at 0.041 µM (CCRF-CEM cell line; Homo sapiens, CCRF-CEM, 41 nM, dT 200 µM + dC 1 µM, read-out: Cell proliferation of the CCRF-CEM cell line Mean (% prolif)): 35.9%; activity at 0.123 µM (CCRF-CEM cell line; Homo sapiens, CCRF-CEM, 123 nM, dT 200 µM + dC 1 µM, read-out: Cell proliferation of the CCRF-CEM cell line Mean (% prolif)): 24.4%; activity at 0.37 µM (CCRF-CEM cell line; Homo sapiens, CCRF-CEM, 370 nM, dT 200 µM + dC 1 µM, read-out: Cell proliferation of the CCRF-CEM cell line Mean (% prolif)): 17.8%; activity at 1.111 µM (CCRF-CEM cell line; Homo sapiens, CCRF-CEM, 1111 nM, dT 200 µM + dC 1 µM, read-out: Cell proliferation of the CCRF-CEM cell line Mean (% prolif)): 14.8%; activity at 3.333 µM (CCRF-CEM cell line; Homo sapiens, CCRF-CEM, 3333 nM, dT 200 µM + dC 1 µM, read-out: Cell proliferation of the CCRF-CEM cell line Mean (% prolif)): 10.3%; IC50 (CCRF-CEM cell line; Homo sapiens, read-out: dCK CELLULAR ASSAY IC50 (nM), CCRF-CEM, 200 µM dT and 1 µM dC, read-out: dCK […] ASSAY IC50): 15.4 ± 10 nM; IC50 (CCRF-CEM cell line; Homo sapiens, Figure 2a, CCRF-CEM cell line, mean, read-out: IC50 (nM) (Cell Prolif)): 14 nM
4 | CCCN(c1nc(-c2nc(N)cc(N)n2)cs1)c1cc(-c2ccc(S(=O)(=O)N3CCN(C)CC3)cc2C(F)(F)F)ccc1C [OR0642] |  |  |  |  |  |  |  |  |  | 2.2 | 22.2 | 22.2 º | 22.2 ± 0.9 | inhibitor even at concentrations in the nanomolar range | I | 22.23 º | activity at 10 pM (CCRF-CEM cell line; Homo sapiens, CCRF-CEM, 0.01 nM, dT 200 µM + dC 1 µM, read-out: Cell proliferation of the CCRF-CEM cell line Mean (% prolif)): 90.6%; activity at 30 pM (CCRF-CEM cell line; Homo sapiens, CCRF-CEM, 0.03 nM, dT 200 µM + dC 1 µM, read-out: Cell proliferation of the CCRF-CEM cell line Mean (% prolif)): 93.3%; activity at 91 pM (CCRF-CEM cell line; Homo sapiens, CCRF-CEM, 0.091 nM, dT 200 µM + dC 1 µM, read-out: Cell proliferation of the CCRF-CEM cell line Mean (% prolif)): 88.7%; activity at 0.00027 µM (CCRF-CEM cell line; Homo sapiens, CCRF-CEM, 0.27 nM, dT 200 µM + dC 1 µM, read-out: Cell proliferation of the CCRF-CEM cell line Mean (% prolif)): 87.2%; activity at 0.00082 µM (CCRF-CEM cell line; Homo sapiens, CCRF-CEM, 0.82 nM, dT 200 µM + dC 1 µM, read-out: Cell proliferation of the CCRF-CEM cell line Mean (% prolif)): 79.7%; activity at 0.0025 µM (CCRF-CEM cell line; Homo sapiens, CCRF-CEM, 2.5 nM, dT 200 µM + dC 1 µM, read-out: Cell proliferation of the CCRF-CEM cell line Mean (% prolif)): 68.2%; activity at 0.0074 µM (CCRF-CEM cell line; Homo sapiens, CCRF-CEM, 7.4 nM, dT 200 µM + dC 1 µM, read-out: Cell proliferation of the CCRF-CEM cell line Mean (% prolif)): 43.1%; activity at 0.022 µM (CCRF-CEM cell line; Homo sapiens, CCRF-CEM, 22 nM, dT 200 µM + dC 1 µM, read-out: Cell proliferation of the CCRF-CEM cell line Mean (% prolif)): 24.9%; activity at 0.067 µM (CCRF-CEM cell line; Homo sapiens, CCRF-CEM, 67 nM, dT 200 µM + dC 1 µM, read-out: Cell proliferation of the CCRF-CEM cell line Mean (% prolif)): 18%; activity at 0.2 µM (CCRF-CEM cell line; Homo sapiens, CCRF-CEM, 200 nM, dT 200 µM + dC 1 µM, read-out: Cell proliferation of the CCRF-CEM cell line Mean (% prolif)): 14.6%; increased potency in the cell proliferation assay (CCRF-CEM cell line; compared with dCKi1): more than 1000 times; potency increase (CCRF-CEM cell line; compared with masitinib): more than 1000 times; improved dCK thermal stability (dCK-C3S-S74E [1]; compared to dCKi1): 7.9 °C; improved dCK thermal stability (dCK-C3S-S74E [1]; compared to masitinib): 15 °C
